Here are results for 3 compounds from US9221868B2, “Uridine di- or tri-phosphate derivatives and uses thereof” (BAR-ILAN UNIVERSITY, priority 2010, dated 2015).

The target of one experiment is T1, P2Y6-R (Homo sapiens, UniProt Q15077).
T1 construct: expressed in transfected cells; host or cells: 1321N1 astrocytoma cells
The experiment is described as follows: [Ca2+]i increase in 1321N1 astrocytoma cells expressing P2Y6-R. Format: cell-based. The following applies: for EC50: 1321N1 astrocytoma cells, [Ca2+]i, read-out: Potencies (EC50) at the P2Y6-R. As to the method:
Green fluorescent protein (GFP) constructs of human P2Y2-R, P2Y4-R and P2Y6-R were expressed in 1321N1 astrocytoma cells, which lack endogenous expression of P2X- and P2Y-receptors. The respective cDNA of the receptor gene was cloned into a pEGFPN1 vector. After transfection using FuGENE 6 Transfection Reagent (Roche Molecular Biochemicals, Mannheim, Germany), the cells were selected with 0.5 mg/ml G418 (geneticine; Merck Chemicals, Darmstadt, Germany) and grown in Dulbecco's modified Eagles' medium (DMEM) supplemented with 10% fetal calf serum, 100 U/ml penicillin and […] at 37° C. and 5% CO2. The expression and cell membrane localization of the respective P2Y receptors was confirmed through the analysis of the GFP fluorescence. The functionality of the expressed GFP-labeled receptor in cells was verified by recording a change of [Ca^2+]i after stimulation with the appropriate receptor agonist.
1321N1 astrocytoma cells transfected with the respective plasmid for P2YR-GFP expression plated on coverslips (22 mm diameter) and grown to approximately 80% density were incubated with 2 μM fura 2/AM and 0.02% pluronic acid in Na-HBS buffer (Hepes buffered saline: 145 mM NaCl, 5.4 mM KCl, 1.8 mM CaCl2, 1 mM MgCl2, 25 mM glucose, 20 mM Hepes/Tris pH 7.4) for 30 min at 37° C. The cells were superfused (1 ml/min, 37° C.) with different concentrations of nucleotide in Na-HBS buffer, and the nucleotide-induced change of [Ca^2+]i was measured by detecting the respective emission intensity of fura 2/AM at 510 nm with after 340 nm and 380 nm excitations (Ubl et al., 1998). The average maximal amplitude of the responses and the respective standard errors were calculated from the ratio of the fura 2/AM fluorescence intensities with excitations at 340 nm and 380 nm (only MT-labeled cells were analysed). Microsoft Excel (Microsoft Corp., Redmond, Wash., USA) and SigmaPlot (SPSS Inc., Chicago, Ill., USA) were used to derive the concentration-response curves and EC50 values from the average response amplitudes obtained in at least three independent experiments (Ecke et al., 2006, 2008). Only cells with a clear MT-signal and with the typical calcium response kinetics upon agonist pulse application were included in the data analysis. The GFP-tagged P2Y receptors are suitable for pharmacological and physiological studies, as previously reported (Tulapurkar et al., 2004, 2006; Zylberg et al., 2007).
1321N1 cell lines stably expressing the human P2Y6 receptors were grown as previously described in DMEM (5% FBS, 100 IU/ml penicillin, 100 μg/ml streptomycin, 1× Glutamax, 10 mM Hepes and 0.5 mg/ml G-418) at 37° C. in a humidified atmosphere containing 5% CO2 and 95% air (Gendron et al., 2003).
1321N1 cells (10×10^6 cells grown in 10 cm^2 dishes) were harvested by a brief trypsin/EDTA treatment, suspended in complete culture medium, and washed by centrifugation for 3 min at 100×g before being incubated with 1 μM Fluo 4/AM in 4.5 ml HBSS with Ca^2+ and Mg^2+ (Wisent, St. Bruno, QC) for 25 min at 37° C. Cells were washed by centrifugation (100×g, 3 min), suspended in HBSS containing Ca^2+ and Mg^2+, and incubated for 25 min at 37° C. Cells were washed and suspended in 16 ml of FIBSS containing Ca^+ and Mg^2+. Cell suspension (2 ml) was gently stirred in a quartz cuvette while [Ca^2+]i and monitored on a RF-5301 PC Shimadzu spectrofluorometer with Panormama fluorescence 1.1 software (Man-Tech, Guelph, ON). Excitation wavelengths of 488 nm and emission wavelength of 520 nm were used to measure changes in intracellular Fluo 4 fluorescence intensity (F). At the end of each recording, maximal fluorescence (Fmax) and minimal fluorescence (Fmin) were determined by adding successively 0.1% Triton X-100 and 50 mM EDTA to cell suspensions. The following equation from Grynkiewicz et al. (1985) was used to relate the fluorescence intensity to Ca^2+ levels: [Ca^2+]=Kd×(F−Fmin)/(Fmax−F), wherein Kd is the Ca^+ dissociation constant of the indicator (345 nM). […]

Experiment [1] relates to intraocular pressure in normotense rabbits. Description: Intraocular pressure (IOP) in normotense rabbits. The format is in vivo, New Zealand white rabbits. The following applies: for Reduction of IOP: applied to the cornea, 100 μM, 10 μl. As to the method: Twenty-four male New Zealand white rabbits (2.5±0.5 kg) were kept in individual cages with free access to food and water on controlled 12 h/12 h light/dark cycles. All the protocols used adhere to the Association for Research in Vision and Ophthalmology (ARVO) Statement for the Use of Animals in Ophthalmology and Vision Research and also are in accordance with the European Communities Council Directive (86/609/EEC).
Intraocular pressure (IOP) was measured by means of a TonoVET rebound tonometer supplied by Tiolat Oy (Helsinki, Finland). […] For single dose experiments, different analogues were applied unilaterally to the cornea at a concentration of 100 μM and a fixed volume of 10 μl. The contralateral eye received the same volume of saline solution (0.9% NaCl, vehicle). Two IOP measurements were taken before any analogue was instilled. Experiments were performed following a blinded design where no visible indication was given to the experimenter as to the nature of the applied solution. IOP was followed up to 8 h to study the time course of the effect. Some of the analogues were assayed over a range of doses from 1 nM to 100 μM to generate dose-response curves. For these experiments, […] was measured as the maximal response obtained with each dose of the analogue. Dose-response curves were calculated by plotting the IOP value for given concentration versus that concentration (from 1 nM to 100 μM). pD2 values were obtained by fitting the values to a dose-response-curve equation according to ORIGIN8.0 software. With the pD2 value it was possible to calculate the EC50 by multiplying by −1 and then take the antilogarithm. The obtained value is the EC50 expressed in molar concentration. In all experiments, on any given day, only a single dose was tested on a single animal, which was washed out at least 2 days between doses. […]
All data are presented as the means±s.e.m. Significant differences were determined by two-tailed Student's t-tests. […]

Structures are written as SMILES.

T1 sequence (Q15077 whole entry): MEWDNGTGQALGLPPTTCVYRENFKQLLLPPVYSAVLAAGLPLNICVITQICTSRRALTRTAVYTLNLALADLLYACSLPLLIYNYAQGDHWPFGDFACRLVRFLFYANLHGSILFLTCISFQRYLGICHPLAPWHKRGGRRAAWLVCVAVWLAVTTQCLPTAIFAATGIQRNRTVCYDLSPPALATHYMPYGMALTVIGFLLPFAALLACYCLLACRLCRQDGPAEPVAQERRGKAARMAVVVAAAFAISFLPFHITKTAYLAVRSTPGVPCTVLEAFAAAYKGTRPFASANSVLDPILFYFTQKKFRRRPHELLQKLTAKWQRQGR

`[BH3-][P+](O)(OCC1OC(n2cc(OC)c(=O)[nH]c2=O)C(O)C1O)OP(=O)(O)O` (single isomer, unassigned) [Analogue 13A, 5-methoxyuridine-5′-O-(α-boranodiphosphate)]: the concentration giving a half-maximal response (EC50) on P2Y6-R worked out at 8 nM. Besides, on P2Y6-R (ratio of EC50 values), the “Potency of A-isomer relative to the corresponding B-isomer at P2Y6-R” value was “more than 500 fold”. Besides, in experiment [1], the “Duration of action (IOP reduction)” value was “about 4 h” and the “Reduction of IOP” value worked out at 45%.
With `COc1cn([C@@H]2O[C@H](COP(=O)(O)OP(=O)(O)O)[C@@H](O)[C@H]2O)c(=O)[nH]c1=O` [Analogue 12, 5-methoxyuridine diphosphate], in experiment [1], the “Reduction of IOP” value is 31%.
For the compound `O=c1ccn([C@@H]2O[C@H](COP(=O)(O)OP(=O)(O)O)[C@@H](O)[C@H]2O)c(=O)[nH]1` [UDP, reference compound], on P2Y6-R, the EC50 came out at 150 nM.

In general, EC50 refers to the concentration at which the effect is half-maximal.
